# Measured values reported in patent US11141444B2, “Lactobacillus crispatus KBL693 strain and use thereof” (KO Biolabs, Inc., priority 2018, dated 2021).
# Test system: RBL-2H3 cells
# Assay: Inhibition of degranulation (β-hexosaminidase co-secreted with histamine) in RBL-2H3 cells
# Type: cell-based
# Settings: RBL-2H3, IgE + DNP-HAS induced degranulation; 120 μL culture supernatant or ketotifen 20 μg/mL; negative control (Siraganian buffer) = 1.0
# Source text: It has been reported that, in an allergic reaction, histamine is expressed in tissues, causing an inflammatory reaction, and suppressing histamine secretion leads to alleviation of allergic symptoms by blocking the reaction by histamine. The present invention attempted to select probiotic strains that can show effects on the alleviation and treatment of allergic reactions through inhibition of histamine secretion. To this end, a total of eight Lactobacillus strains derived from human vagina were evaluated for the ability to suppress histamine secretion. […]
# To identify the activity of β-hexosaminidase, 25 μL of the supernatant collected in Example 1-3 was transferred to each well of a 96-well plate, and then 25 μL of each substrate (p-nitrophenyl N-acetyl-D-[…]) was added thereto, and followed by a reaction at 37° C. in the 5% CO2 incubator for 90 minutes. Then, 200 μL of stop solution (Na2CO3/NaHCO3) was added to stop the reaction and then absorbance was measured at 405 nm. The absorbance when treated with each type of Lactobacillus crispatus was compared to the negative control group and converted to percentage to show the level of inhibition of the degranulation.
smiles,measurement,value
"CN1CCC(=C2c3ccccc3CC(=O)c3sccc32)CC1 [Ketotifen, ketotifen]",β-hexosaminidase (fold change),0.2569 fold change
